Entries after “also recorded” stand apart in the source; their conditions may differ. Where two headings read alike, the source gives them in different places.
Key:
[1] = molecular target: T1, CYP2C8 (Homo sapiens, UniProt P10632); assay: In vitro metabolism of pemigatinib by recombinant human CYP2C8; type: in vitro ADME
T1 sequence (P10632 1-490): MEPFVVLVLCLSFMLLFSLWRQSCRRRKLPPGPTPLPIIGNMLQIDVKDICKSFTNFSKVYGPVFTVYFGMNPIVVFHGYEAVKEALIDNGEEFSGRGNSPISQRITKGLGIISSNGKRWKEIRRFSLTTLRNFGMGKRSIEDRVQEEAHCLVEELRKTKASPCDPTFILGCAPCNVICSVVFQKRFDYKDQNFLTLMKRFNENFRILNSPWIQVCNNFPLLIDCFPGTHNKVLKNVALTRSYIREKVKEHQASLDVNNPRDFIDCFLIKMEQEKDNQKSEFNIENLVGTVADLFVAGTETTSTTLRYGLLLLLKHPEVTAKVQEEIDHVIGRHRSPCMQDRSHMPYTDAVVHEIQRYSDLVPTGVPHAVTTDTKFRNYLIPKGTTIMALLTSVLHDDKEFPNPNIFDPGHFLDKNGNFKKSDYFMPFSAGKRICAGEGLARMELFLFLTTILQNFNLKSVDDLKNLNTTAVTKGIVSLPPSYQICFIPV
Experimental: (§1) In vitro metabolism studies were conducted to determine the human cytochrome P450 (CYP) isozyme(s) capable of metabolizing pemigatinib.
(§2) In vitro metabolism studies were conducted to determine the individual human recombinant CYP isozymes capable of metabolizing pemigatinib (1 μM) and included CYP1A2, CYP2B6, CYP2C8, CYP2C9, CYP2C19, CYP2D6, or CYP3A4.

[2] = Mass balance and metabolite identification (human ADME) data; type: in vivo
[3] = Phase 1 drug-drug interaction study: single-dose pemigatinib PK alone or with itraconazole or rifampin
[4] = Permeability of pemigatinib (statement, no method given); type: in vitro ADME
[5] = molecular target: T2, CYP3A4 (Homo sapiens, UniProt P08684); assay: In vitro metabolism of pemigatinib by recombinant human CYP3A4; type: in vitro ADME
T2 construct: host or cells: in silico (Simcyp virtual population); observed values come from healthy volunteers
Experimental: as §1, §2

[6] = molecular target: CYP2C19 (Homo sapiens, UniProt P33261); assay: In vitro metabolism of pemigatinib by recombinant human CYP2C19; type: in vitro ADME
Experimental: as §1, §2

[7] = molecular target: CYP2D6 (Homo sapiens, UniProt P10635); assay: In vitro metabolism of pemigatinib by recombinant human CYP2D6; type: in vitro ADME
Experimental: as §1, §2

[8] = Phase I dose escalation and dose expansion study, observed PK in cancer patients; type: in vivo; conditions: human, plasma, geometric mean; for AUC: read-out: Observed AUCss; for Cmax: read-out: Observed Cmax, ss
Experimental: The pemigatinib PBPK model was developed from healthy volunteer was used to describe cancer patients PK data from phase I dose escalation and dose expansion study (6-20 mg). The model was used to predict pemigatinib plasma concentration-time curves in cancer patients after multiple oral dose of 6, 9, 13.5 and 20 mg pemigatinib because only one patient was dosed for 1, 2 and 4 mg, respectively.

[9] = molecular target: T3, CYP1A2 (Homo sapiens, UniProt P05177); assay: In vitro metabolism of pemigatinib by recombinant human CYP1A2; type: in vitro ADME
T3 sequence (P05177 1-516): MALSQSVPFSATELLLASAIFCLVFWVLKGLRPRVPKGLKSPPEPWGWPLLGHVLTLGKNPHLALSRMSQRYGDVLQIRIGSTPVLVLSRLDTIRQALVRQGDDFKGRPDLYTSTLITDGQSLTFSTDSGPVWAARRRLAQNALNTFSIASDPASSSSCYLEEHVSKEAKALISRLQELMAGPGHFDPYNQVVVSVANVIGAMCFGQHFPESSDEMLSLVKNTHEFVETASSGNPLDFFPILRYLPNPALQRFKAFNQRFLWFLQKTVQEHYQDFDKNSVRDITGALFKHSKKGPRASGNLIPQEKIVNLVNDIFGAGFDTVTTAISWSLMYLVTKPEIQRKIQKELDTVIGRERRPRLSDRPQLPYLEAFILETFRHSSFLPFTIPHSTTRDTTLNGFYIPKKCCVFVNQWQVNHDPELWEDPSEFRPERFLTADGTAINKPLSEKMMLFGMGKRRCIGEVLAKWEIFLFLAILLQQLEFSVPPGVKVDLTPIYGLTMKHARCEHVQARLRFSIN
Experimental: as §1, §2

[10] = molecular target: T4, CYP2B6 (Homo sapiens, UniProt P20813); assay: In vitro metabolism of pemigatinib by recombinant human CYP2B6; type: in vitro ADME
T4 sequence (P20813 1-491): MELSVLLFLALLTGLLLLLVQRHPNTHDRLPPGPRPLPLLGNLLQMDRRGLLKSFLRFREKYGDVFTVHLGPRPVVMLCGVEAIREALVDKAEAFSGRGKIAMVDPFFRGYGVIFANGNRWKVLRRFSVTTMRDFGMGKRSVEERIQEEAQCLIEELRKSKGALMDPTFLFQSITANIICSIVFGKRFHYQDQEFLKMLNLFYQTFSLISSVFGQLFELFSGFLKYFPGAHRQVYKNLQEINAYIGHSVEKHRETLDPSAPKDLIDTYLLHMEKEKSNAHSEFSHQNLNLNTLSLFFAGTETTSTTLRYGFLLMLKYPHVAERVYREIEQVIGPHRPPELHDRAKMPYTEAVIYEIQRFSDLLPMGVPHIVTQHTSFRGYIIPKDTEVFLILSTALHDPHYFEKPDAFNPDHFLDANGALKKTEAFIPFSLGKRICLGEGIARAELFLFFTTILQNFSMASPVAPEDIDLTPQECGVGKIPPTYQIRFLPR
Experimental: as §1, §2

[11] = Cohort 1: 4.5 mg pemigatinib alone or with itraconazole 200 mg QD, geometric mean
[12] = Cohort 1: 4.5 mg pemigatinib alone or with itraconazole 200 mg QD, mean ± SD
[13] = Cohort 2: 13.5 mg pemigatinib alone or with rifampin 600 mg QD, geometric mean
[14] = Cohort 2: 13.5 mg pemigatinib alone or with rifampin 600 mg QD, mean ± SD
[15] = pemigatinib with/without itraconazole, geometric mean

T2 sequence (P08684 whole entry): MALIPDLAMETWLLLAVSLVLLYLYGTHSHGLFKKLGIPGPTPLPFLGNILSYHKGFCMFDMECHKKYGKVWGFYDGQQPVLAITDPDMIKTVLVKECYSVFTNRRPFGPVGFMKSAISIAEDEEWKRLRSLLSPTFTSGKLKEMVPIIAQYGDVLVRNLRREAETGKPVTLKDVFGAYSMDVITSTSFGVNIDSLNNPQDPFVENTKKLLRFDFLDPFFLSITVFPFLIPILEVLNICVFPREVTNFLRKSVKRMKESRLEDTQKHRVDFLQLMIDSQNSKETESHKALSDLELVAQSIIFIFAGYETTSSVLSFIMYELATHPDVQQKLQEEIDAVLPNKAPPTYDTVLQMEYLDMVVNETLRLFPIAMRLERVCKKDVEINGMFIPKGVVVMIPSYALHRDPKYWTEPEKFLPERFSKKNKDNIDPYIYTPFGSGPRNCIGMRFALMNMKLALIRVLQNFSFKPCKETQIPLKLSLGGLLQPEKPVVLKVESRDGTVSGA
Chain of CYP2C19 (P33261 whole entry): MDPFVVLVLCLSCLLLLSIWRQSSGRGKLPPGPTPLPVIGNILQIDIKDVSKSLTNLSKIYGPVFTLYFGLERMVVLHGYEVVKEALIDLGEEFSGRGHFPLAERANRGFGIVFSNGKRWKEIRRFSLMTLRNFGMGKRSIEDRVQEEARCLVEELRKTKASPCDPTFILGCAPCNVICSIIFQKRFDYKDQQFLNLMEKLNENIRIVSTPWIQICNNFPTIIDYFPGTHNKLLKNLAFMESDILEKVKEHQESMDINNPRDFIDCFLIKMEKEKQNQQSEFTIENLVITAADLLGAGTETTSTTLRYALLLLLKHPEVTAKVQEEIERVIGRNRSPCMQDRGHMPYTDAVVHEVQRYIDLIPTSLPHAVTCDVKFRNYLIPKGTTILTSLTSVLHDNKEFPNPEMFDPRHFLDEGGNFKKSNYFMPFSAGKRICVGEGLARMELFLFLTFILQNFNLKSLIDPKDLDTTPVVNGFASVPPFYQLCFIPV
Chain of CYP2D6 (P10635 whole entry): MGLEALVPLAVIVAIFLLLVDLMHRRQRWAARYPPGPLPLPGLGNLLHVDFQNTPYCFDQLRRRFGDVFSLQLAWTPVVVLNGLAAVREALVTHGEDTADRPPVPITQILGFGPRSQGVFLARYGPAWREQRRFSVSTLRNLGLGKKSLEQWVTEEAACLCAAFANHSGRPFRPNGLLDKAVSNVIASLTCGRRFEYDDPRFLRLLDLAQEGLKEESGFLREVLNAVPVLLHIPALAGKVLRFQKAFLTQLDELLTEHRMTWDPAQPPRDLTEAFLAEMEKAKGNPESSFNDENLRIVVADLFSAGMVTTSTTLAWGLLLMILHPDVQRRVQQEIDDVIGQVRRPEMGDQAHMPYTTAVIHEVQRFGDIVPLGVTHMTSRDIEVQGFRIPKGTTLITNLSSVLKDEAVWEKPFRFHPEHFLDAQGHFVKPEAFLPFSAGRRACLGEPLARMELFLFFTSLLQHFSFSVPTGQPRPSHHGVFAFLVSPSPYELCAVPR

CCN1C(=O)N(c2c(F)c(OC)cc(OC)c2F)Cc2cnc3[nH]c(CN4CCOCC4)cc3c21 [Pemigatinib, 3-(2,6-difluoro-3,5-dimethoxyphenyl)-1-ethyl-8-(morpholin-4-ylmethyl)-1,3,4,7-tetrahydro-2H-pyrrolo[3′,2′: 5,6]pyrido[4,3-d]pyrimidin-2-one]
Extent of in vitro metabolism by CYP2C8 (in words) [1]: negligible | Average Percent (N = 2) of Pemigatinib Remaining vs Control (30 mins) ([1]; recombinant CYP2C8, pemigatinib 1 μM, 30 min): 94% | Oral absorption of pemigatinib (in words) ([2]; mass balance and metabolite identification data): nearly complete | Renal excretion (unchanged pemigatinib excreted in urine) ([2]; mass balance data): ~1.0 % of the dose | Unchanged pemigatinib recovered in feces ([2]; mass balance data): 1.3 % of the administered radioactive dose | AUC0-t [3, 11]: 0.634 µM·h | AUC0-∞ [3, 11]: 0.672 µM·h | CL/F [3, 11]: 13.7 L/h | CL/F [3, 12]: 14.5 ± 4.55 L/h | t1/2 [3, 12]: 12.1 ± 2.74 h | AUC0-t [3, 13]: 1.9 µM·h | AUC0-∞ [3, 13]: 1.96 µM·h | CL/F [3, 13]: 14.1 L/h | AUC0-t [3, 14]: 1.98 ± 0.526 µM·h | CL/F [3, 14]: 14.8 ± 4.86 L/h | t1/2 [3, 14]: 12.9 ± 2.90 h | Tmax ([3]; Cohort 2: 13.5 mg pemigatinib alone or with rifampin 600 mg QD, median): 1.0 h | Oral clearance of pemigatinib (in words) ([3]; in vivo, po): low oral clearance | AUC Ratio, Observed [3, 15]: 1.88 | Cmax Ratio, Observed [3, 15]: 1.17 | Cmax ([3]; read-out: Observed Cmax, single oral 13.5 mg, geometric mean): 158 nM | Permeability of pemigatinib (in words) [4]: high permeability | Extent of in vitro metabolism by CYP3A4 (in words) [5]: predominantly metabolized; also recorded: metabolized to the greatest extent | Average Percent (N = 2) of Pemigatinib Remaining vs Control (30 mins) ([5]; recombinant CYP3A4, pemigatinib 1 μM, 30 min): 14% | Extent of in vitro metabolism by CYP2C19 (in words) [6]: negligible | Average Percent (N = 2) of Pemigatinib Remaining vs Control (30 mins) ([6]; recombinant CYP2C19, pemigatinib 1 μM, 30 min): 95% | Extent of in vitro metabolism by CYP2D6 (in words) [7]: negligible | Average Percent (N = 2) of Pemigatinib Remaining vs Control (30 mins) ([7]; recombinant CYP2D6, pemigatinib 1 μM, 30 min): 94% | AUC ([8]; multiple oral dose 6 mg): 1.11 µM·h | Cmax ([8]; multiple oral dose 6 mg): 101 nM | AUC ([8]; multiple oral dose 9 mg): 1.51 µM·h | Cmax ([8]; multiple oral dose 9 mg): 161 nM | AUC ([8]; multiple oral dose 13.5 mg): 2.6 µM·h | Cmax ([8]; multiple oral dose 13.5 mg): 175 nM | AUC ([8]; multiple oral dose 20 mg): 4.18 µM·h | Cmax ([8]; multiple oral dose 20 mg): 380 nM | Extent of in vitro metabolism by CYP1A2 (in words) [9]: negligible | Average Percent (N = 2) of Pemigatinib Remaining vs Control (30 mins) ([9]; recombinant CYP1A2, pemigatinib 1 μM, 30 min): 92% | Extent of in vitro metabolism by CYP2B6 (in words) [10]: negligible | Average Percent (N = 2) of Pemigatinib Remaining vs Control (30 mins) ([10]; recombinant CYP2B6, pemigatinib 1 μM, 30 min): 96%

Source: patent US11628162B2, “Methods of treating cancer with an FGFR inhibitor” (Incyte Corporation, priority 2019, dated 2023)
